Results published in article PMC9519446, “Discovery of an Orally Active Benzoxaborole Prodrug Effective in the Treatment of Chagas Disease in Non-human Primates” (Nature microbiology, 2022).
Several values for one entry are separate records, joined by “and”; a condition that tells them apart may be missing. Equal values may be shown once. Read-outs that look alike come from different tables or passages of the source.

Columns and labels:
[1] = test system: TcCBP KO T. cruzi extracellular amastigotes; assay: Extracellular amastigote assay with serine carboxypeptidase knockout T. cruzi; type: cell-based, Trypanosoma cruzi; details: for % of maximum: Fig 2.c, TcCBP KO
Method: (§1) The in vitro anti-T. cruzi amastiogote activity assay was performed and optimized based on the protocol described previously. The change in tdTomato fluorescence intensity was determined as a measurement of growth over 72 hours of culture. For assaying drug effects on extracellular amastigotes, trypomastigotes were collected from infected Vero cell cultures and converted in acidic media as previously described. Amastigotes (50,000/well) were incubated with 2-fold serial dilutions of compounds for 48 hours. The ATP production was used as an indication of growth in this case, and was measured by ATPlite Luminescence ATP Detection Assay System (PerkinElmer). Both fluorescence and luminescence were read using a BioTek Synergy Hybrid Multi-Mode reader equipped with the software Gene5 v 2.0 (BioTek). The dose-response curve was generated by […] analysis with GraphPad Prism v9.4.0 (GraphPad Software).
The CBPs knockout was produced using ribonucleoprotein (RNP) complexes as previously described. Briefly, Brazil tdTomato strain epimastigotes were electroporated with RNP complexes containing SaCas9 and an sgRNA targeting CBP gene TcBrA4_0048170, plus a repair template containing stop codons in all three reading frames and the M13 sequence for use as a PCR anchor. The sgRNA targeted the ‘[…]” sequence. After 2 days of recovery, single-cell clones were derived by depositing epimastigotes into a 96-well plate at a density of 0.5 cell/well by using a MoFlo Astrios EQ cell sorter (Beckman Coulter). DNA isolation was performed for clones, and primer pair of 5’-[…]-3’ and 5’- […] -3’ was used for amplifying the wild type allele, while primer pair of M13-F: 5’- […] -3’ and 5’- […] -3’ was used for amplifying the mutant allele.

[2] = test system: T. cruzi extracellular amastigotes; assay: Extracellular amastigote assay (ATPlite luminescence, 48 hours); type: cell-based; details: Trypanosoma cruzi
Method: as §1

[3] = test system: Luciferase expressing T. cruzi (Colombiana strain); assay: Low dose short treatment (whole body bioluminescence); type: in vivo, Hairless mice (SKH-1)
Description: Bioluminiscence signal of the whole body was measure after D-luciferin injection in a Lumina II IVIS in vivo imager equipped with the Living Imaging 4.0 software (PerkinElmer).

[4] = test system: T. cruzi (naturally acquired infection); assay: NHP treatment study: hemoculture; type: in vivo, rhesus macaques (Macaca mulatta); details: 30 mg/kg/day oral 60 days; all time points after end of treatment
Method: A total of 22 rhesus macaques that had been confirmed to be serologically- and PCR-positive for T. cruzi were utilized in these studies. Using 19 animals in the treatment group provided 85% power of detecting 100% efficacy. […] The remaining three animals on the study were maintained as untreated control animals and received food treats but were not dosed with AN15368.
For hemoculture determinations, peripheral blood from macaques was collected and cultured at 26°C in supplemented liver digest neutralized tryptose medium as described previously. The presence of T. cruzi parasites was assessed every week for 3 months under an inverted microscope. T. cruzi DTU of the macaque isolates was determined as previously described.

SMILES	% of maximum ([1]; 0.00)	% of maximum ([1]; 0.30)	% of maximum ([1]; -0.30)	% of maximum ([1]; -0.60)	% of maximum ([1]; -0.90)	% of maximum ([1]; -1.20)	% of maximum ([1]; -1.51)	% of maximum ([1]; -1.81)	% of maximum ([1]; -2.11)	% of maximum ([1]; -2.41)	% of maximum ([1]; -2.71)	IC50 ([1]; Trypanosoma cruzi, read-out: TcCBP KO IC50) [nM]	IC50 ([2]; WT extracellular amastigotes, Fig. 2c, read-out: WT IC50) [nM]	IC50 ([2]; extracellular amastigotes, Fig. 2a, read-out: Extracellular IC50) [nM]	Bioluminiscence signals of mice ([3]; AN15368_2.5mg, 19 dpi)	Bioluminiscence signals of mice ([3]; AN15368_5mg, 15 dpi)	Bioluminiscence signals of mice ([3]; AN15368_5mg, 19 dpi)	culture of parasites from blood (in words) [4]
Cc1c(C(=O)NC(C(=O)OCc2ccc(F)c(F)c2)C(C)C)ccc2c1B(O)OC2 (stereo not drawn) [AN14353]	11% and 2% and 8%	1% and -4% and 3%	1% and 9%	14% and 11% and 5%	20% and 18% and 16%	31% and 40% and 33%	54% and 51% and 59%	101% and 104% and 95%	106% and 104% and 96%	101% and 104%	100% and 102%	44.4	0.5	0.1	–	–	–	–
Cc1c(C(=O)N[C@H](C(=O)OCC2CCOCC2)C(C)C)ccc2c1B(O)OC2 [AN15368]	–	–	–	–	–	–	–	–	–	–	–	–	–	–	29400000 and 22400000 and 35610000 and 24370000	8923000 and 11990000	2040000	negative
